Measured values: patent US6475985B1, “Nucleosides with antiviral and anticancer activity” (priority 1998, dated 2002)
Read-outs that look alike come from different tables or passages of the source.

Key:
[1] = Test F: stability in human plasma; type: in vitro ADME; settings: 37 C
[2] = system: MCF-7 breast cancer cells; assay: Test G: activity against MCF-7 breast cancer cells; type: cell-based
Procedure: (§1) The activity of representative compounds of formula VII against MCF-7 breast cancer cells and CEM T-cell leukemia cells were determined using a procedure similar to that described by C. R. Wagner, et al. Cancer Research, 1997, 57, 2341-2345.

[3] = system: CEM T-cell leukemia cells; assay: Test G: activity against CEM T-cell leukemia cells; type: cell-based
Procedure: as §1

[4] = in vitro; settings: cell media
[5] = system: HIV-1; assay: Test A: antiviral activity against HIV-1 isolates and laboratory strain in peripheral blood lymphocytes; type: cell-based; settings: Human immunodeficiency virus 1, Lymphocyte, read-out: Mean IC50 in PBLs
Procedure: (§2) The antiviral activity of representative compounds of the invention was determined with matched HIV-1 isolates and a laboratory HIV-1 strain as previously described (D. L. Mayers et al., Proc. Natl. Acad. Sci., USA 1995, 92, 215-219; and C. R. Wagner et al., Bioorganic and Medicinal Chemistry Letters, 1995, 5, 1819-1824).

[6] = system: PBMCs; settings: human
Procedure: as §2

Question: Which half-life [1] does the source give for `O=c1[nH]c(=O)n([C@H]2C[C@H](O)[C@@H](CO)O2)cc1F` [FUdR, 5-fluorodeoxyuridine, reference compound] here?
Answer: Its half-life is 0.0833 to 0.167 h.

Question: And the CC50 ([2]; Homo sapiens, MCF7)?
Answer: Its CC50 is 11000 nM.

Question: And the CC50 ([3]; T-cell)?
Answer: Its CC50 is 1 nM.

Question: What about the half-life [4] of the same molecule?
Answer: Its half-life is > 48 h.

Question: Which IC50 ([5]; HIV-1 isolate A012 post-AZT) does the source give for `Nc1nccc2c1ncn2[C@@H]1O[C@H](CO)[C@@H](O)[C@H]1O` [DZA, 3-deaza adenosine, reference compound] here?
Answer: Its IC50 is 165 nM.

Question: And the IC50 ([5]; HIV-1 isolate A012 pre-AZT)?
Answer: The IC50 was 144 nM.

Question: And the CC80 [6]?
Answer: Its CC80 is 1000 nM.

Question: Which CC50 [2] does the source give for `COC(=O)[C@H](Cc1c[nH]c2ccccc12)NP(=O)(O)OC[C@H]1O[C@@H](n2cc(F)c(=O)[nH]c2=O)C[C@@H]1O` [Compound 37, 5-fluoro-2′deoxy-5′-uridyl N-((L)-1-carbomethoxy-2-indol-3-ylethyl)phosphoramidate] here?
Answer: The CC50 was 25 nM.

Question: What about the CC50 [3] of the same molecule?
Answer: Its CC50 is 320 nM.

Question: And the “Half-life Cell Media 37 C” value?
Answer: Its value is >48 h.
